For 22 molecules, IC50 results are on record in patent publication US9199983B2, “3-aryl-6-aryl-[1,2,4]triazolo[4,3-α]pyridines as inhibitors of cell proliferation and the use thereof” (priority 2010, dated 2015).

For orientation: pIC50 means −log10 of the IC50, conventionally taken in molar units. A low value points to a large IC50.

pIC50: −log10 of the molar value. Structures can show the parent of a compound that is named as a salt. Bounds are passed on as bounds.

The test system of assay [1] is liver cancer cell line HepG2. Kind of assay: MTT cancer cell cytotoxicity assay, HepG2. The format is cell-based, human. Conditions: Homo sapiens, HepG2 cells, 48-72 h. The method, then: (§1) Identification of 3-(2-methoxyphenyl)-6-(4-methoxyphenyl)-[1,2,4]triazolo[4,3-a]pyridine and analogs as inhibitors of cell proliferation that were evaluated with standard MTT cancer cell cytotoxicity assay (IC50)
(§2) Human lung cancer cell line A549, breast cancer cell line T47D, liver cancer cell lines HepG2 and SMMC7721 as well as a mouse melanoma cell line B16F10 were used in the study. The cells were cultured in corresponding growth media recommended by American Type Culture Collection (ATCC) with the supplementation of penicillin G (100 U/ml)/streptomycin (100 µg/ml), and 10% fetal bovine serum (Hangzhou Sijiqing Biological Engineering Materials, Co., Ltd. China) at 37° C. in a humidified atmosphere containing 5% CO2. Cells at about 80% confluency were harvested by trypsinization. Cells were centrifuged, re-suspended in fresh growth media and counted. Corresponding numbers of cells were seeded to 96-well cell culture plates (HepG2 cell, T-47D and A549 cells at 3000 cells/well, SMMC-7721 cells at 5000 cells/well and B16F10 cells at 2000 cells/well) in a total volume of […]. Cells were incubated in CO2 incubator over night to allow the cells to attach. In next day, […] of medium containing testing (from 10 μM to 1 nM) or reference compounds was added to each well of the cells. Media without compound were used as 100% control. Cells were treated with each concentration of compounds in triplicates to ensure data accuracy. Cells were incubated with compounds in CO2 incubator for an additional 48-72 h at 37° C. After incubation, cells were removed from the CO2 incubator and […] of 5 mg/ml MTT (3-(4,5-dimethylthiazole-2-yl)-2,5-diphenyltetrazoliumbromide, Sigma) solution in PBS was added to each well. Cells were returned to CO2 incubator and incubated for additional 4 h. After the incubation, media were removed by aspiration and […] DMSO was added to each well. Plates were sealed with aluminum foil and shaked mildly on an orbital shaker for 10 min at room temperature. The absorption was measured at 550 nm with a plate reader (Varioskan Flash, Thermo Fisher Scientific) with 660 nm reading used as background control. The relative absorbance readings were calculated by subtracting readings at 660 nm from that at 550 nm. The relative absorbance was plotted again the concentrations of the testing compounds and the plots were fitted with a one-site lg(IC50) equation using Prism 5 software (GraphPad Software, Inc). The equation used in the curve fitting is as follows: relative absorbance reading=background reading+(maximal reading−brackground reading)/(1+10 ^(compound concentration-log IC50)). The background reading used in the calculation was obtained with 100% cell death using a reference anticancer drug, whereas the maximal reading was obtained in the well with no added compound. The IC50 value calculated from the equation represents the cytotoxic potency of a particular compound.

Assay [2] deals with liver cancer cell line SMMC7721. As to the kind of experiment: MTT cancer cell cytotoxicity assay, SMMC7721. Conditions: Homo sapiens, SMMC-7721, SMMC7721 cells, 48-72 h. Format: cell-based, human. The method, then:
as §1, §2

For assay [3], the system named is Human lung cancer cell line A549. Kind of assay: MTT cancer cell cytotoxicity assay, A549. Conditions: Homo sapiens, A549 cells, 48-72 h. Format: cell-based. The method, then: as §1, §2
Assay [4] has as its system breast cancer cell line T47D. Kind of assay: MTT cancer cell cytotoxicity assay, T47D. Conditions: Homo sapiens, T47D cells, 48-72 h. The format is cell-based, human. How it is done:
as §1, §2

As to `COc1ccccc1-c1nnc2ccc(-c3ccc(OCc4ccccc4)c(C)c3)cn12` [Example 37, 6-(4-Benzyloxy-3-methylphenyl)-3-(2-methoxyphenyl)-[1,2,4]triazolo[4,3-a]pyridine], the negative logarithm of the IC50 (pIC50) was 5.45 in assay [1], 5.48 in assay [2], 5.15 in assay [3] and 5.03 in assay [4].

Take `COc1ccccc1-c1nnc2ccc(-c3ccc(O)c(C)c3)cn12` [Example 41, 6-(4-Hydroxy-3-methylphenyl)-3-(2-methoxyphenyl)-[1,2,4]triazolo[4,3-a]pyridine]: the pIC50 in assay [1] is 6.81; in assay [2] it was 6.93; in assay [3], 6.67; in assay [4] it was 6.89.

As to `COc1ccc([N+](=O)[O-])cc1-c1nnc2ccc(-c3ccc(OC)c([N+](=O)[O-])c3)cn12` [Example 42, 6-(4-Methoxy-3-nitrophenyl)-3-(2-methoxy-5-nitrophenyl)-[1,2,4]triazolo[4,3-a]pyridine], the pIC50 in assay [1] is 6.51; in assay [2], 6.64; in assay [3] it was 6.31; in assay [4], 6.55.

Turning to `COc1cc(-c2ccc3nnc(-c4ccccc4OC)n3c2)ccc1N` [Example 43, 6-(4-Amino-3-methoxyphenyl)-3-(2-methoxyphenyl)-[1,2,4]triazolo[4,3-a]pyridine], the negative logarithm of the IC50 (pIC50) was 5.79 in assay [1], 5.66 in assay [2], less than 5.00 in assay [3] and 5.65 in assay [4].

For `COc1ccccc1-c1nnc2ccc(-c3ccc(C)c(N)c3)cn12` [Example 44, 6-(3-Amino-4-methylphenyl)-3-(2-methoxyphenyl)-[1,2,4]triazolo[4,3-a]pyridine], the negative-log IC50 (pIC50) in assay [1] was 7.54; in assay [2], 7.70; in assay [3] it was 7.27; in assay [4], 7.32.

Consider `COc1ccccc1-c1nnc2ccc(-c3cccc(N)c3)cn12` [Example 45, 6-(3-Aminophenyl)-3-(2-methoxyphenyl)-[1,2,4]triazolo[4,3-a]pyridine hydrochloride], for which the negative-log IC50 (pIC50) was 5.90 in assay [1], 6.08 in assay [2], 5.53 in assay [3] and 6.17 in assay [4].

As for `COc1ccccc1-c1nnc2ccc(-c3ccc(N)cc3)cn12` [Example 47, 6-(4-Aminophenyl)-3-(2-methoxyphenyl)-[1,2,4]triazolo[4,3-a]pyridine hydrochloride], the pIC50 in assay [1] is 6.14; in assay [2] it was 6.44; in assay [3] it was 5.98; in assay [4], 6.72.

For `COc1ccc(-c2cn3c(-c4ccccc4OC)nnc3cc2C)cc1` [Example 54, 3-(2-Methoxyphenyl)-6-(4-methoxyphenyl)-7-methyl-[1,2,4]triazolo[4,3-a]pyridine], the negative logarithm of the IC50 (pIC50) in assay [1] is 6.87; in assay [2], 7.03; in assay [3], 6.37; in assay [4] it was 6.82.

Take `COc1ccc(-c2cc(C)c3nnc(-c4ccccc4OC)n3c2)cc1` [Example 55, 3-(2-Methoxyphenyl)-6-(4-methoxyphenyl)-8-methyl-[1,2,4]triazolo[4,3-a]pyridine]: the negative-log IC50 (pIC50) is 7.06 in assay [1], 7.24 in assay [2], 6.91 in assay [3] and 6.59 in assay [4].

For the molecule `COc1cc(-c2ccc3nnc(-c4ccccc4OC)n3c2)ccc1O` [Example 56, 6-(4-Hydroxy-3-methoxyphenyl)-3-(2-methoxyphenyl)-[1,2,4]triazolo[4,3-a]pyridine], the negative-log IC50 (pIC50) was 6.15 in assay [1], 5.74 in assay [2], less than 5.00 in assay [3] and 5.83 in assay [4].

Consider `COc1ccc(-c2ccc3nnc(-c4ccc(F)cc4OC)n3c2)cc1` [Example 58, 3-(4-Fluoro-2-methoxyphenyl)-6-(4-methoxyphenyl)-[1,2,4]triazolo[4,3-a]pyridine], for which the pIC50 was 7.46 in assay [1], 7.77 in assay [2], 7.23 in assay [3] and 7.27 in assay [4].

As for `COc1ccc(-c2ccc3nnc(-c4c(OC)cccc4OC)n3c2)cc1` [Example 61, 3-(2,6-Dimethoxyphenyl)-6-(4-methoxyphenyl)-[1,2,4]triazolo[4,3-a]pyridine], the negative-log IC50 (pIC50) in assay [1] is 6.02; in assay [2], 6.59; in assay [3] it was 5.59; in assay [4], 5.53.

In the case of `COc1ccc(-c2ccc3nnc(-c4cc(OC)ccc4OC)n3c2)cc1` [Example 62, 3-(2,5-Dimethoxyphenyl)-6-(4-methoxyphenyl)-[1,2,4]triazolo[4,3-a]pyridine], the negative logarithm of the IC50 (pIC50) in assay [1] was 7.11; in assay [2] it was 7.38; in assay [3], 6.85; in assay [4] it was 6.81.

As to `COc1ccc(-c2ccc3nnc(-c4c(F)cccc4OC)n3c2)cc1` [Example 63, 3-(6-Fluoro-2-methoxyphenyl)-6-(4-methoxyphenyl)-[1,2,4]triazolo[4,3-a]pyridine], the negative logarithm of the IC50 (pIC50) in assay [1] was 6.63; in assay [2] it was 7.44; in assay [3], 6.76; in assay [4], 6.83.

Regarding `COc1ccc(-c2ccc3nnc(-c4ccc(OC)cc4)n3c2)cc1` [Example 64, 3,6-Bis(4-methoxyphenyl)-[1,2,4]triazolo[4,3-a]pyridine], the pIC50 in assay [1] was 6.25; in assay [2], 6.82; in assay [3], 6.19; in assay [4], 6.47.

Take `COc1ccc(-c2ccc3nnc(-c4c(OC)ccc(Br)c4OC)n3c2)cc1` [Example 65, 3-(3-Bromo-2,6-dimethoxyphenyl)-6-(4-methoxyphenyl)-[1,2,4]triazolo[4,3-a]pyridine]: the pIC50 in assay [1] was 6.03; in assay [2], 6.70; in assay [3] it was 5.61; in assay [4], 6.24.

In the case of `COc1ccc(-c2ccc3nnc(-c4ccccc4OC(F)(F)F)n3c2)cc1` [Example 67, 6-(4-Methoxyphenyl)-3-(2-trifluoromethoxyphenyl)-[1,2,4]triazolo[4,3-a]pyridine], the pIC50 was 6.04 in assay [1], 6.98 in assay [2], 6.33 in assay [3] and 6.48 in assay [4].

In the case of `COc1ccc(-c2ccc3nnc(-c4ccccc4)n3c2)cc1` [Example 68, 6-(4-Methoxyphenyl)-3-phenyl-[1,2,4]triazolo[4,3-a]pyridine], the negative logarithm of the IC50 (pIC50) in assay [1] was 5.30; in assay [2] it was 6.12; in assay [3], 5.11; in assay [4] it was 5.53.

As for `COc1ccc(-c2ccc3nnc(-c4cc(OC)c(OC)cc4OC)n3c2)cc1` [Example 69, 6-(4-Methoxyphenyl)-3-(2,4,5-trimethoxyphenyl)-[1,2,4]triazolo[4,3-a]pyridine], the negative logarithm of the IC50 (pIC50) in assay [1] was 6.04; in assay [2], 6.51; in assay [3], 6.08; in assay [4], 6.08.

As to `COc1ccc(-c2ccc3nnc(-c4ccc(OC)c(OC)c4OC)n3c2)cc1` [Example 72, 6-(4-Methoxyphenyl)-3-(2,3,4-trimethoxyphenyl)-[1,2,4]triazolo[4,3-a]pyridine], the negative logarithm of the IC50 (pIC50) is less than 5.00 in assay [1], 5.38 in assay [2], less than 5.00 in assay [3] and 5.09 in assay [4].

In the case of `COc1ccc(-c2ccc3nnc(-c4cccc(OC)c4OC)n3c2)cc1` [Example 73, 3-(2,3-Dimethoxyphenyl)-6-(4-methoxyphenyl)-[1,2,4]triazolo[4,3-a]pyridine], the pIC50 in assay [1] is 5.63; in assay [2], 5.49; in assay [3] it was less than 5.00; in assay [4], 5.27.

As to `CCOc1ccccc1-c1nnc2ccc(-c3ccc(OC)cc3)cn12` [Example 74, 3-(2-Ethoxyphenyl)-6-(4-methoxyphenyl)-[1,2,4]triazolo[4,3-a]pyridine], the negative logarithm of the IC50 (pIC50) in assay [1] is 6.85; in assay [2], 7.42; in assay [3] it was 6.84; in assay [4], 6.82.
